The assay concerns MV-4-11 cells. Description: Gene expression microarray analysis (Affymetrix PrimeView) and GSEA. The class given is cell-based, human. More on the design: RFU PODN (11730768_x_at) / Fold change /veh PODN (11730768_x_at) / RFU LINC00158 (11744669_a_at) / Fold change /veh LINC00158 (11744669_a_at) / RFU DUSP10 (11751237_a_at) / Fold change /veh DUSP10 (11751237_a_at) / RFU ID3 (11757404_x_at) / Fold change /veh ID3 (11757404_x_at) / RFU PLEKHG5 (11737974_s_at) / Fold change /veh PLEKHG5 (11737974_s_at) / RFU LRRC4B (11730491_at) / Fold change /veh LRRC4B (11730491_at) / RFU GIMAP4 (11747438_a_at) / Fold change /veh GIMAP4 (11747438_a_at) / RFU KRT8 (11758183_x_at) / Fold change /veh KRT8 (11758183_x_at) / RFU CNN1 (11734310_a_at) / Fold change /veh CNN1 (11734310_a_at) / RFU VPS37D (11726825_at) / Fold change /veh VPS37D (11726825_at) / RFU C10orf10 (11716522_x_at) / Fold change /veh C10orf10 (11716522_x_at) / RFU KIR2DL2 /// KIR2DL4 /// KIR2DL5A /// KIR2DL5B /// KIR2DS1 /// KIR2DS2 /// KIR2DS3 /// KIR2DS4 /// KIR3DL3 /// KIR3DL3 /// KIR3DS1 (11738374_at) / Fold change /veh KIR2DL2 /// KIR2DL4 /// KIR2DL5A /// KIR2DL5B /// KIR2DS1 /// KIR2DS2 /// KIR2DS3 /// KIR2DS4 /// KIR3DL3 /// KIR3DL3 /// KIR3DS1 (11738374_at) / RFU C1QL1 (11718748_at) / Fold change /veh C1QL1 (11718748_at) / RFU TMPRSS4 (11747572_a_at) / Fold change /veh TMPRSS4 (11747572_a_at) / RFU HAMP (11756126_x_at) / Fold change /veh HAMP (11756126_x_at) / RFU RNFT2 (11725882_a_at) / Fold change /veh RNFT2 (11725882_a_at) / RFU NR4A2 (11747474_a_at) / Fold change /veh NR4A2 (11747474_a_at) / RFU ABCC12 (11746883_a_at) / Fold change /veh ABCC12 (11746883_a_at) / RFU TMEM136 (11760407_x_at) / Fold change /veh TMEM136 (11760407_x_at) / RFU CLDN22 /// WWC2 (11732394_at) / Fold change /veh CLDN22 /// WWC2 (11732394_at) / RFU HLA-DPB1 (11760878_x_at) / Fold change /veh HLA-DPB1 (11760878_x_at) / RFU SPINT1 (11716480_a_at) / Fold change /veh SPINT1 (11716480_a_at) / RFU GAP43 (11754022_s_at) / Fold change /veh GAP43 (11754022_s_at) / RFU A4GNT (11735810_at) / Fold change /veh A4GNT (11735810_at) / RFU PRB3 (11715151_x_at) / Fold change /veh PRB3 (11715151_x_at) / RFU TUBB4B (11761932_at) / Fold change /veh TUBB4B (11761932_at) / RFU CAPN14 (11732068_a_at) / Fold change /veh CAPN14 (11732068_a_at) / RFU TMCC2 (11721928_a_at) / Fold change /veh TMCC2 (11721928_a_at) / RFU IRGQ (11745062_a_at) / Fold change /veh IRGQ (11745062_a_at) / RFU FAM174B (11720279_a_at) / Fold change /veh FAM174B (11720279_a_at) / RFU TMPRSS4 (11748680_a_at) / Fold change /veh TMPRSS4 (11748680_a_at) / RFU FAM212B (11763350_a_at) / Fold change /veh FAM212B (11763350_a_at) / RFU PLEKHG5 (11743358_a_at) / Fold change /veh PLEKHG5 (11743358_a_at) / RFU ZSCAN30 (11745921_a_at) / Fold change /veh ZSCAN30 (11745921_a_at) / RFU CMKLR1 (11741424_a_at) / Fold change /veh CMKLR1 (11741424_a_at) / RFU LOC101060620 /// MAPK8IP1 (11723275_at) / Fold change /veh LOC101060620 /// MAPK8IP1 (11723275_at) / RFU SPTSSB (11747773_x_at) / Fold change /veh SPTSSB (11747773_x_at) / RFU PRSS12 (11739890_at) / Fold change /veh PRSS12 (11739890_at) / RFU BIN1 (11741810_x_at) / Fold change /veh BIN1 (11741810_x_at) / RFU WNT11 (11732464_a_at) / Fold change /veh WNT11 (11732464_a_at) / RFU C10orf10 (11716521_a_at) / Fold change /veh C10orf10 (11716521_a_at) / RFU C5orf56 (11738089_at) / Fold change /veh C5orf56 (11738089_at) / RFU CYB561 (11721691_x_at) / Fold change /veh CYB561 (11721691_x_at) / RFU ANKRD19P (11752326_a_at) / Fold change /veh ANKRD19P (11752326_a_at) / RFU OR2T12 /// OR2T33 /// OR2T8 (11738714_s_at) / Fold change /veh OR2T12 /// OR2T33 /// OR2T8 (11738714_s_at) / RFU VCAN (11748164_a_at) / Fold change /veh VCAN (11748164_a_at) / RFU JSRP1 (11732532_at) / Fold change /veh JSRP1 (11732532_at) / RFU KRTAP10-11 (11738290_x_at) / Fold change /veh KRTAP10-11 (11738290_x_at) / RFU MYO3A (11730013_a_at) / Fold change /veh MYO3A (11730013_a_at) / RFU EBF3 (11725865_a_at) / Fold change /veh EBF3 (11725865_a_at) / RFU CAMK2N1 (11719241_x_at) / Fold change /veh CAMK2N1 (11719241_x_at) / RFU C5orf56 (11738088_a_at) / Fold change /veh C5orf56 (11738088_a_at) / RFU OLFML3 (11715873_a_at) / Fold change /veh OLFML3 (11715873_a_at) / RFU LOC100653217 /// NTM (11731650_a_at) / Fold change /veh LOC100653217 /// NTM (11731650_a_at) / RFU MAPK11 (11762145_a_at) / Fold change /veh MAPK11 (11762145_a_at) / RFU FIZ1 (11724087_x_at) / Fold change /veh FIZ1 (11724087_x_at) / RFU OASL (11726364_x_at) / Fold change /veh OASL (11726364_x_at) / RFU SOX15 (11748057_x_at) / Fold change /veh SOX15 (11748057_x_at) / RFU CD79A (11719716_a_at) / Fold change /veh CD79A (11719716_a_at) / RFU HIST1H1D (11736915_at) / Fold change /veh HIST1H1D (11736915_at) / RFU CASKIN2 (11723855_a_at) / Fold change /veh CASKIN2 (11723855_a_at) / RFU LOC730098 (11760151_x_at) / Fold change /veh LOC730098 (11760151_x_at) / RFU OR4N2 (11742367_at) / Fold change /veh OR4N2 (11742367_at) / RFU PRRT2 (11749266_a_at) / Fold change /veh PRRT2 (11749266_a_at) / RFU SNX32 (11753110_a_at) / Fold change /veh SNX32 (11753110_a_at) / RFU CDHR5 (11726645_a_at) / Fold change /veh CDHR5 (11726645_a_at) / RFU RCAN1 (11760418_a_at) / Fold change /veh RCAN1 (11760418_a_at) / RFU FAM167A (11723789_a_at) / Fold change /veh FAM167A (11723789_a_at) / RFU FAM26E (11764081_at) / Fold change /veh FAM26E (11764081_at) / RFU ISYNA1 (11749810_s_at) / Fold change /veh ISYNA1 (11749810_s_at) / RFU ACY1 (11761880_at) / Fold change /veh ACY1 (11761880_at) / RFU 11764098_at / Fold change /veh 11764098_at / RFU SAMD14 (11745864_x_at) / Fold change /veh SAMD14 (11745864_x_at) / RFU NPB (11741838_a_at) / Fold change /veh NPB (11741838_a_at) / RFU TMPRSS6 (11731388_a_at) / Fold change /veh TMPRSS6 (11731388_a_at) / RFU KRTAP10-2 (11738614_at) / Fold change /veh KRTAP10-2 (11738614_at) / RFU ARHGAP8 /// PRR5-ARHGAP8 (11727945_x_at) / Fold change /veh ARHGAP8 /// PRR5-ARHGAP8 (11727945_x_at) / RFU KRTAP5-7 /// NADSYN1 (11734609_at) / Fold change /veh KRTAP5-7 /// NADSYN1 (11734609_at) / RFU RASL12 (11751679_a_at) / Fold change /veh RASL12 (11751679_a_at) / RFU CDKN2B (11736163_a_at) / Fold change /veh CDKN2B (11736163_a_at) / RFU PRF1 (11729649_at) / Fold change /veh PRF1 (11729649_at) / RFU, ZNF638 /// ZNF638-IT1 / Fold change vs veh, ZNF638 /// ZNF638-IT1 / RFU, PANK3 / Fold change vs veh, PANK3 / RFU, SH3YL1 / Fold change vs veh, SH3YL1 / RFU, ZEB2 / Fold change vs veh, ZEB2 / RFU, NRIP1 / Fold change vs veh, NRIP1 / RFU, PTTG1IP / Fold change vs veh, PTTG1IP / RFU, CAPN2 / Fold change vs veh, CAPN2 / RFU, MED14 / Fold change vs veh, MED14 / RFU, SNORA58 / Fold change vs veh, SNORA58 / RFU, C1orf63 / Fold change vs veh, C1orf63 / RFU, LRRFIP1 / Fold change vs veh, LRRFIP1 / RFU, NDUFAF7 / Fold change vs veh, NDUFAF7 / RFU, SLC12A2 / Fold change vs veh, SLC12A2 / RFU, IBTK / Fold change vs veh, IBTK / RFU, ESF1 / Fold change vs veh, ESF1 / Fold change vs veh, TMEM50B / RFU, TAOK1 / Fold change vs veh, TAOK1 / RFU, ACBD3 / Fold change vs veh, ACBD3 / RFU, TMA16 / Fold change vs veh, TMA16 / RFU, RWDD3 / Fold change vs veh, RWDD3 / RFU, BCAT1 / Fold change vs veh, BCAT1 / RFU, EDEM3 / Fold change vs veh, EDEM3 / RFU, TMEM33 / Fold change vs veh, TMEM33 / RFU, WDR75 / Fold change vs veh, WDR75 / RFU, AHCTF1 / Fold change vs veh, AHCTF1 / RFU, TFRC / Fold change vs veh, TFRC / RFU, ZDHHC17 / Fold change vs veh, ZDHHC17 / RFU, NOM1 / Fold change vs veh, NOM1 / RFU, ARL8B / Fold change vs veh, ARL8B / RFU, ZBTB11 / Fold change vs veh, ZBTB11 / RFU, TAMM41 / Fold change vs veh, TAMM41 / RFU, KIAA1704 /// LOC100996395 / Fold change vs veh, KIAA1704 /// LOC100996395 / RFU, ING1 / Fold change vs veh, ING1 / RFU, TRMT61B / Fold change vs veh, TRMT61B / RFU, FUBP3 / Fold change vs veh, FUBP3 / RFU, TP53 / Fold change vs veh, TP53 / RFU, TNKS2 / Fold change vs veh, TNKS2 / RFU, ZFP14 / Fold change vs veh, ZFP14 / RFU, ACTR2 / Fold change vs veh, ACTR2 / RFU, PPP3R1 / Fold change vs veh, PPP3R1 / RFU, PIK3R1 / Fold change vs veh, PIK3R1 / RFU, HNRNPA1 / Fold change vs veh, HNRNPA1 / RFU, RNF170 / Fold change vs veh, RNF170 / RFU, ZNF28 / Fold change vs veh, ZNF28 / RFU, RNGTT / Fold change vs veh, RNGTT / RFU, OGT / Fold change vs veh, OGT / RFU, BRD1 / Fold change vs veh, BRD1 / RFU, MARS / Fold change vs veh, MARS / RFU, ZNF655 / Fold change vs veh, ZNF655 / RFU, FAHD1 / Fold change vs veh, FAHD1 / RFU, BDP1 / Fold change vs veh, BDP1 / RFU, LRRCC1 / Fold change vs veh, LRRCC1 / RFU, ARID1A / Fold change vs veh, ARID1A / RFU, ZNF146 / Fold change vs veh, ZNF146 / RFU, ZNF330 / Fold change vs veh, ZNF330 / RFU, GPN3 / Fold change vs veh, GPN3 / RFU, C9orf123 / Fold change vs veh, C9orf123 / RFU, N4BP2L2 / Fold change vs veh, N4BP2L2 / RFU, ARFIP1 / Fold change vs veh, ARFIP1 / RFU, FAM179B / Fold change vs veh, FAM179B / RFU, BCL10 / Fold change vs veh, BCL10 / RFU, UHRF1BP1L / Fold change vs veh, UHRF1BP1L / RFU, BET1 / Fold change vs veh, BET1 / RFU, CNOT2 / Fold change vs veh, CNOT2 / RFU, ZNF268 / Fold change vs veh, ZNF268 / Fold change vs veh, ZNF507 / RFU, DGCR2 / Fold change vs veh, DGCR2 / RFU, WDSUB1 / Fold change vs veh, WDSUB1 / Fold change vs veh, HSP90B1 /// MIR3652 / RFU, ADSS / Fold change vs veh, ADSS / RFU, GK / Fold change vs veh, GK / RFU, ZNF148 / Fold change vs veh, ZNF148 / RFU, TAF9 / Fold change vs veh, TAF9 / RFU, SLC1A5 / Fold change vs veh, SLC1A5 / RFU, SLMO2 / Fold change vs veh, SLMO2 / RFU, ABCC4 / Fold change vs veh, ABCC4 / RFU, LOC101060439 /// RAP1B / Fold change vs veh, LOC101060439 /// RAP1B / RFU, RFX7 / Fold change vs veh, RFX7 / RFU, GTPBP10 / Fold change vs veh, GTPBP10 / RFU, CNEP1R1 / Fold change vs veh, CNEP1R1 / RFU, BIVM-ERCC5 /// ERCC5 / Fold change vs veh, BIVM-ERCC5 /// ERCC5 / RFU, ILF3 / Fold change vs veh, ILF3 / RFU 11762660_at / Fold change /veh 11762660_at / RFU VCAN (11757783_s_at) / Fold change /veh VCAN (11757783_s_at) / RFU DDX43 (11728927_at) / Fold change /veh DDX43 (11728927_at) / RFU KRT8 (11758188_x_at) / Fold change /veh KRT8 (11758188_x_at) / RFU NKD1 (11759106_at) / Fold change /veh NKD1 (11759106_at) / RFU SRD5A1 (11742802_a_at) / Fold change /veh SRD5A1 (11742802_a_at) / RFU TPSAB1 /// TPSB2 (11721975_s_at) / Fold change /veh TPSAB1 /// TPSB2 (11721975_s_at) / RFU GSTM3 (11746129_a_at) / Fold change /veh GSTM3 (11746129_a_at) / RFU IL23R (11737362_x_at) / Fold change /veh IL23R (11737362_x_at) / RFU TMEM51 (11727254_a_at) / Fold change /veh TMEM51 (11727254_a_at) / RFU PIWIL2 (11732686_x_at) / Fold change /veh PIWIL2 (11732686_x_at) / RFU ORM1 (11744905_x_at) / Fold change /veh ORM1 (11744905_x_at) / RFU CCDC152 (11743942_at) / Fold change /veh CCDC152 (11743942_at) / RFU ECM1 (11717891_a_at) / Fold change /veh ECM1 (11717891_a_at) / RFU IL23R (11748794_a_at) / Fold change /veh IL23R (11748794_a_at) / RFU TNFAIP8L3 (11732012_x_at) / Fold change /veh TNFAIP8L3 (11732012_x_at) / RFU MBOAT4 (11741988_at) / Fold change /veh MBOAT4 (11741988_at) / RFU 11764193_at / Fold change /veh 11764193_at / RFU TMEM53 (11763286_at) / Fold change /veh TMEM53 (11763286_at) / RFU MAGEB2 (11727129_at) / Fold change /veh MAGEB2 (11727129_at) / RFU TMEM200A (11744735_a_at) / Fold change /veh TMEM200A (11744735_a_at) / RFU CCDC152 (11751479_a_at) / Fold change /veh CCDC152 (11751479_a_at) / RFU FAM211A (11726209_a_at) / Fold change /veh FAM211A (11726209_a_at) / RFU RGS16 (11746705_a_at) / Fold change /veh RGS16 (11746705_a_at) / RFU VCAN (11755009_s_at) / Fold change /veh VCAN (11755009_s_at) / RFU RHOB (11743442_s_at) / Fold change /veh RHOB (11743442_s_at) / RFU RGS16 (11720943_a_at) / Fold change /veh RGS16 (11720943_a_at) / RFU RGS16 (11720944_at) / Fold change /veh RGS16 (11720944_at) / RFU, VPS4B / Fold change vs veh, VPS4B / RFU, CREB1 / Fold change vs veh, CREB1 / RFU, DNAJC13 / Fold change vs veh, DNAJC13 / RFU, GNAQ / Fold change vs veh, GNAQ / RFU, CDK5R1 / Fold change vs veh, CDK5R1 / RFU, ZRANB3 / Fold change vs veh, ZRANB3 / RFU, CUL4A / Fold change vs veh, CUL4A / RFU, CCNY / Fold change vs veh, CCNY / RFU, UFL1 / Fold change vs veh, UFL1 / RFU, COG3 / Fold change vs veh, COG3 / RFU, DIAPH2 / Fold change vs veh, DIAPH2 / RFU, SKA2 / Fold change vs veh, SKA2 / RFU, AFF3 / Fold change vs veh, AFF3 / RFU, LMF1 / Fold change vs veh, LMF1 / RFU, IPO11 / Fold change vs veh, IPO11 / RFU, DFFB / Fold change vs veh, DFFB / RFU, FOXP1 / Fold change vs veh, FOXP1 / RFU, CARD8 / Fold change vs veh, CARD8 / RFU, STRN3 / Fold change vs veh, STRN3 / RFU, ADK / Fold change vs veh, ADK / RFU, RASSF2 / Fold change vs veh, RASSF2 / RFU, WIPF1 / Fold change vs veh, WIPF1 / RFU, LARP1B / Fold change vs veh, LARP1B / RFU, RASA1 / Fold change vs veh, RASA1 / RFU, RB1 / Fold change vs veh, RB1 / RFU, PPFIA1 / Fold change vs veh, PPFIA1 / RFU, MAT2A / Fold change vs veh, MAT2A / RFU, CCT5 / Fold change vs veh, CCT5 / RFU, WDR92 / Fold change vs veh, WDR92 / RFU, CUX1 / Fold change vs veh, CUX1 / RFU, TTC7A / Fold change vs veh, TTC7A / RFU, TMEM135 / Fold change vs veh, TMEM135 / RFU, DEPTOR / Fold change vs veh, DEPTOR / RFU, CPM / Fold change vs veh, CPM / RFU, DNAJB6 / Fold change vs veh, DNAJB6 / RFU, CACNA2D3 / Fold change vs veh, CACNA2D3 / RFU, DTX4 / Fold change vs veh, DTX4 / RFU, TFCP2 / Fold change vs veh, TFCP2 / RFU, GMCL1 /// GMCL1P1 / Fold change vs veh, GMCL1 /// GMCL1P1 / RFU, AEBP2 / Fold change vs veh, AEBP2 / RFU, SNHG1 /// SNORD22 /// SNORD25 /// SNORD26 /// SNORD27 /// SNORD28 /// SNORD29 /// SNORD31 / Fold change vs veh, SNHG1 /// SNORD22 /// SNORD25 /// SNORD26 /// SNORD27 /// SNORD28 /// SNORD29 /// SNORD31 / Fold change (Aza/veh), C12orf56 (ProbeSet 11735607_a_at) / Fold change (ACY-1035/veh), C12orf56 (ProbeSet 11735607_a_at) / Fold change (Aza/veh), FGFR1OP (ProbeSet 11751329_s_at) / Fold change (ACY-1035/veh), FGFR1OP (ProbeSet 11751329_s_at) / Fold change (Aza/veh), VPS36 (ProbeSet 11739960_a_at) / Fold change (ACY-1035/veh), VPS36 (ProbeSet 11739960_a_at) / RFU SYPL1 (11715823_x_at) / Fold change /veh SYPL1 (11715823_x_at) / RFU IGFBP7 (11715501_s_at) / Fold change /veh IGFBP7 (11715501_s_at) / RFU REEP3 (11722064_at) / Fold change /veh REEP3 (11722064_at) / RFU IGLL1 (11728026_x_at) / Fold change /veh IGLL1 (11728026_x_at): dose or concentration left out as unconfirmed. The settings on record: ProbeSet 11749645_x_at; LIST B.

Regarding `Nc1ccc(-c2cccs2)cc1NC(=O)c1ccc2c(c1)cc(C1CC1)n2CCN1CCOCC1` [ACY-1035], the “RFU, ZNF268” value was 141.54 RFU.

For the origin of these results see article PMC5218480 (PLoS ONE, 2017).
